# From patent US20040076974A1, “Liver necrosis predictive genes” (priority 2002, published 2004)
# Where “and” joins values, the source holds several entries; their conditions need not be identical. Equal values may be shown once. Read-outs that look alike come from different tables or passages of the source.
# Tested on: toxicologically relevant rat genes (rat CT array)
# [1] = 24 h, dose 20, ratio treatment/control, listed as PBARB
# [2] = 24 h, dose 80, ratio treatment/control, listed as PBARB
compound,measurement,setting,value
CCC1(c2ccccc2)C(=O)NC(=O)NC1=O [phenobarbital],3-hydroxyisobutyrate dehydrogenase,[1],1.08 and 1.006
same,14-3-3 zeta,[1],1.208 and 1.207
same,"17-beta hydroxysteroid dehydrogenase, type 2",[1],1.581 and 1.324
same,60S ribosomal protein L6,[1],1.352 and 1.202
same,ATPase inhibitor (rat mitochondrial IF1 protein),[1],0.6195 and 0.719
same,Alpha 1 - inhibitor III,[1],0.5583 and 0.815
same,Alpha-2-macroglobulin,[1],0.7668 and 0.9845
same,Bax (alpha),[1],1.204 and 1.029
same,Beta-actin,[1],1.31 and 1.008
same,Calpactin I heavy chain,[1],1.101 and 1.191
same,Carbamyl phosphate synthetase I,[1],0.7852 and 0.892
same,Carbonic anhydrase III,[1],0.977 and 0.617
same,Carbonyl reductase,[1],0.9613 and 0.916
same,"Cathepsin L, sequence 2",[1],1.563 and 1.367
same,Cofilin,[1],0.9117
same,Cyclin G,[1],1
same,DNA polymerase beta,[1],1.056
same,Dynamin-1 (D100),[1],0.8477 and 0.8322
same,"Endogenous retroviral sequence, 5′ and 3′ LTR",[1],0.9945 and 0.7515
same,Enolase alpha,[1],1.238 and 0.9827
same,Epidermal growth factor,[1],0.8761 and 0.9811
same,Equilbrative nitrobenzylthioinosine-sensitive nucleoside transporter,[1],1.018 and 0.7905
same,Extracellular-signal-regulated kinase 1,[1],1.131 and 0.7366
same,Fas antigen,[1],1.246 and 1.226
same,Gadd45,[1],1.009 and 1.065
same,Gadd153,[1],1.013 and 1.011
same,"Gamma-actin, cytoplasmic",[1],1.054 and 0.8811
same,Glucose-regulated protein 78,[1],1.261 and 1.059
same,Heme oxygenase,[1],0.9438 and 0.9315
same,Hepatic lipase,[1],0.6998 and 0.9047
same,ID-1,[1],0.8693 and 1.008
same,IgE binding protein,[1],0.8925 and 0.9114
same,IkB-a,[1],1.305 and 0.9599
same,Insulin-like growth factor I,[1],0.7485 and 0.9327
same,Insulin-like growth factor binding protein 1,[1],1.727 and 1.357
same,Insulin-like growth factor binding protein 3,[1],0.8872 and 0.9985
same,Integrin beta1,[1],1.272 and 1.092
same,L-gulono-gamma-lactone oxidase,[1],1.051 and 0.8183
same,Liver fatty acid binding protein,[1],1.109 and 1.478
same,MAP kinase kinase,[1],1.185
same,Macrophage inflammatory protein-2 alpha,[1],1.188 and 1.009
same,Matrin F/G,[1],1.181 and 1.074
same,Matrix metalloproteinase-1,[1],1.164
same,Melanoma-associated antigen ME491,[1],0.9925 and 1.119
same,Monocyte chemotactic protein receptor (CCR2),[1],1.134
same,Multidrug resistant protein-2,[1],1.635 and 1.128
same,N-hydroxy-2-acetylaminofluorene sulfotransferase (ST1C1),[1],0.9899 and 0.8091
same,Organic anion transporter 3,[1],1.248 and 1.132
same,Organic cation transporter 3,[1],1.276 and 1.184
same,Ornithine decarboxylase,[1],1.253 and 1.099
same,PAR interacting protein,[1],1.254 and 1.247
same,Phase-1 RCT 252,[1],0.9399
same,Phase-1 RCT-15,[1],1.589
same,Phase-1 RCT-33,[1],1.471
same,Phase-1 RCT-36,[1],1.441
same,Phase-1 RCT-39,[1],1.098 and 0.9997
same,Phase-1 RCT-48,[1],0.8561
same,Phase-1 RCT-49,[1],0.9102
same,Phase-1 RCT-50,[1],1.003 and 0.9822
same,Phase-1 RCT-83,[1],0.8335
same,Phase-1 RCT-88,[1],0.963
same,Phase-1 RCT-102,[1],0.6239
same,Phase-1 RCT-117,[1],0.7039
same,Phase-1 RCT-123,[1],0.9541
same,Phase-1 RCT-127,[1],0.7569
same,Phase-1 RCT-128,[1],0.7394 and 0.7417
same,Phase-1 RCT-137,[1],0.7926
same,Phase-1 RCT-179,[1],0.8634 and 0.9704
same,Phase-1 RCT-181,[1],0.9556
same,Phase-1 RCT-182,[1],0.8988
same,Phase-1 RCT-189,[1],0.9743
same,Phase-1 RCT-191,[1],1.518 and 1.291
same,Phase-1 RCT-213,[1],1.105
same,Phase-1 RCT-239,[1],0.8651
same,Phase-1 RCT-242,[1],0.9504
same,Phase-1 RCT-256,[1],0.9833
same,Phase-1 RCT-258,[1],1.096
same,Phase-1 RCT-264,[1],0.5841
same,Phase-1 RCT-288,[1],0.674
same,Proliferating cell nuclear antigen gene,[1],1.31 and 0.9115
same,Ribosomal protein L13A,[1],1.101 and 1.176
same,Ribosomal protein S8,[1],1.41 and 1.396
same,Senescence marker protein-30,[1],0.7967 and 0.7544
same,Sodium/bile acid cotransporter,[1],1.606 and 1.619
same,Superoxide dismutase Mn,[1],1.251 and 1.032
same,Thymosin beta-10,[1],1.095
same,Transthyretin,[1],0.579 and 0.7326
same,Ubiquitin conjugating enzyme (RAD 6 homologue),[1],1.219 and 1.207
same,Uncoupling protein 2,[1],1.028 and 0.9917
same,Zinc finger protein,[1],1.033 and 1.014
same,c-jun,[1],0.8724 and 0.8417
same,c-myc,[1],1.263 and 0.7701
same,p53,[1],1.141 and 1.123
same,{Ribosomal protein L6},[1],1.13 and 0.9995
same,3-hydroxyisobutyrate dehydrogenase,[2],0.9364 and 1.012 and 0.9868
same,14-3-3 zeta,[2],1.349 and 1.439 and 1.37
same,"17-beta hydroxysteroid dehydrogenase, type 2",[2],0.7562 and 0.7908 and 0.9571
same,60S ribosomal protein L6,[2],1.307 and 1.425
same,ATPase inhibitor (rat mitochondrial IF1 protein),[2],0.6848 and 0.7077 and 0.6801
same,"Aldehyde dehydrogenase, microsomal",[2],1.087 and 1.048
same,Alpha 1 - inhibitor III,[2],0.5856 and 0.4905 and 0.5622
same,Alpha-2-macroglobulin,[2],0.9113 and 0.8593 and 0.9766
same,Bax (alpha),[2],1.058 and 1.091 and 1.122
same,Beta-actin,[2],1.224 and 1.246 and 1.145
same,Calpactin I heavy chain,[2],1.134 and 1.063
same,Carbamyl phosphate synthetase I,[2],0.8575 and 0.7797 and 0.7692
same,Carbonyl reductase,[2],1.059 and 1.125 and 0.962
same,"Cathepsin L, sequence 2",[2],1.574 and 1.633
same,Cofilin,[2],0.9114 and 0.8537 and 0.8627
same,Cyclin G,[2],1.002 and 1.066 and 1.079
same,DNA polymerase beta,[2],1.046 and 1.107
same,Dynamin-1 (D100),[2],0.9128 and 0.9717 and 0.9326
same,"Endogenous retroviral sequence, 5′ and 3′ LTR",[2],1.21 and 0.7011 and 0.7797
same,Enolase alpha,[2],1.121 and 1.118 and 1.149
same,Epidermal growth factor,[2],1.003 and 1.092 and 1.144
same,Equilbrative nitrobenzylthioinosine-sensitive nucleoside transporter,[2],0.9518 and 0.8269 and 0.9012
same,Extracellular-signal-regulated kinase 1,[2],1.5 and 1.071 and 0.8668
same,Fas antigen,[2],1.331 and 1.404 and 1.329
same,Gadd45,[2],1.044 and 0.9552 and 1.022
same,Gadd153,[2],1.008 and 0.989 and 0.9738
same,"Gamma-actin, cytoplasmic",[2],1.252 and 1.167 and 1.207
same,Glucose-regulated protein 78,[2],1.679 and 1.668 and 1.487
same,Heme oxygenase,[2],0.7677 and 0.7554 and 0.8649
same,Hepatic lipase,[2],0.7302 and 1.208 and 0.6736
same,ID-1,[2],1.015 (2×) and 0.9098
same,IgE binding protein,[2],0.9374 and 0.898
same,IkB-a,[2],1.024 and 1.103 and 1.096
same,Insulin-like growth factor I,[2],0.6186 and 0.52 and 0.7677
same,Insulin-like growth factor binding protein 1,[2],1.514 and 1.628
same,Insulin-like growth factor binding protein 3,[2],0.6158 and 0.8747
same,Integrin beta1,[2],1.29 and 1.37 and 1.335
same,L-gulono-gamma-lactone oxidase,[2],0.6365 and 0.6402 and 0.7055
same,Liver fatty acid binding protein,[2],0.8038 and 0.7393 and 0.8984
same,MAP kinase kinase,[2],1.002 and 1.108
same,Macrophage inflammatory protein-2 alpha,[2],1.093 and 1.12 and 1.177
same,Matrin F/G,[2],0.9519 and 0.9552 and 1.004
same,Matrix metalloproteinase-1,[2],1.245 and 1.194 and 1.355
same,Melanoma-associated antigen ME491,[2],1.089 and 0.9854 and 1.045
same,Monocyte chemotactic protein receptor (CCR2),[2],1.034 and 1.086 and 1.071
same,Multidrug resistant protein-2,[2],1.301 and 1.556 and 1.405
same,N-hydroxy-2-acetylaminofluorene sulfotransferase (ST1C1),[2],0.7492 and 0.7954 and 0.8182
same,Nucleoside diphosphate kinase beta isoform,[2],1.36 and 1.288 and 1.362
same,Organic anion transporter 3,[2],1.251 and 1.195 and 1.053
same,Organic cation transporter 3,[2],1.211 and 1.277 and 1.36
same,Ornithine decarboxylase,[2],1.262 and 1.294 and 1.161
same,PAR interacting protein,[2],1.196 and 1.432 and 1.205
same,Phase-1 RCT 252,[2],0.772 and 0.7405
same,Phase-1 RCT-15,[2],1
same,Phase-1 RCT-33,[2],1.288
same,Phase-1 RCT-37,[2],1.101
same,Phase-1 RCT-39,[2],1.631 and 1.876 and 2.263
same,Phase-1 RCT-40,[2],0.9657 and 1.099
same,Phase-1 RCT-48,[2],0.6407
same,Phase-1 RCT-72,[2],0.9031 and 0.8598
same,Phase-1 RCT-83,[2],0.7773
same,Phase-1 RCT-88,[2],0.8891
same,Phase-1 RCT-89,[2],0.9166
same,Phase-1 RCT-102,[2],0.7133 and 0.4783 and 0.5208
same,Phase-1 RCT-123,[2],0.9384 and 1.104
same,Phase-1 RCT-137,[2],0.8817
same,Phase-1 RCT-154,[2],1.303
same,Phase-1 RCT-180,[2],1.296
same,Phase-1 RCT-181,[2],0.9889
same,Phase-1 RCT-182,[2],0.9123
same,Phase-1 RCT-189,[2],0.8764 and 0.754 and 0.6881
same,Phase-1 RCT-191,[2],1.599
same,Phase-1 RCT-214,[2],0.9342 and 1.408
same,Phase-1 RCT-239,[2],0.5982 and 0.595
same,Phase-1 RCT-241,[2],1.293
same,Phase-1 RCT-242,[2],0.9855 and 0.8679 and 0.8934
same,Phase-1 RCT-256,[2],0.8602
same,Phase-1 RCT-264,[2],0.5789 and 0.5647 and 0.5936
same,Phase-1 RCT-270,[2],0.9344 and 0.9311
same,Phase-1 RCT-271,[2],1.204 and 1.753
same,Phase-1 RCT-291,[2],1.285
same,Phase-1 RCT-296,[2],0.8165
same,Proliferating cell nuclear antigen gene,[2],1.007 and 0.9415 and 1.108
same,Ribosomal protein L13A,[2],1.209 and 1.299
same,Ribosomal protein S8,[2],1.309 and 1.3 and 1.45
same,Ribosomal protein S17,[2],1.52
same,Senescence marker protein-30,[2],0.4601 and 0.4705 and 0.6829
same,Sodium/bile acid cotransporter,[2],2.871 and 2.806 and 2.757
same,Superoxide dismutase Mn,[2],1.266 and 1.52 and 1.416
same,Thymosin beta-10,[2],0.9766 and 1.212
same,Transthyretin,[2],0.5528 and 0.5255 and 0.5896
same,Ubiquitin conjugating enzyme (RAD 6 homologue),[2],1.202 and 1.253 and 1.239
same,Uncoupling protein 2,[2],1.015 and 0.8977 and 1.15
same,Zinc finger protein,[2],0.9857 and 1.001 and 0.984
same,c-jun,[2],0.6641 and 0.6214 and 0.6871
same,c-myc,[2],1.056 and 0.76 and 0.7591
same,p53,[2],1.049 and 1.111 and 0.9729
same,{Ribosomal protein L6},[2],1.301
same,Paraoxonase 1,"rat, in vivo",0.7914 and 0.865 and 0.7219 and 0.8315 and 0.967
